Literature values as cited in patent US6436449B2, “Use of a composition” (priority 2000, dated 2002).

Assays:
[1] = injected into mice; US 4,543,212
blood platelets = settings: in vitro; US 4,543,212
burn eschars = settings: mice; US 4,543,212

xeronine
anti-inflammatory action [1]: excellent anti-inflammatory agents
aggregation of blood platelets by adenosine diphosphate (blood platelets): inhibited
debridement of burn eschars (burn eschars): caused the debridement of burn eschars
